Read-outs that look alike come from different tables or passages of the source.
How the values were obtained:
[1] = system: S. aureus ATCC 29213 and S. aureus BAA-1720; test: MIC in the presence of 20% human serum
E. coli ATCC 25922 = test: Post-antibiotic effect (PAE); assay type: cell-based, Escherichia coli; settings: 1× and 4× MIC
Method: (§1) A drug-free control was included in each experiment. After being exposed to the drug for 1 hour, viable counts were conducted in triplicate by spotting aliquots (10 μl) of suitable dilutions onto MHA plates. The drugs were removed by diluting the bacterial cultures (1:1000) in Cation-Adjusted Mueller-Hinton Broth (CAMHB; Sigma-Aldrich). The diluted cultures were incubated in a shaking bath at 37°C. To monitor the ongoing suppression of bacterial growth over time (5 hours), aliquots from each broth culture were periodically collected, diluted and plated to perform subsequent viable counts (in triplicate).

S. aureus ATCC 29213 [2] = test: Post-antibiotic effect (PAE); assay type: cell-based, Staphylococcus aureus; settings: 1-hour exposure, range over 1×, 4× and 16× MIC
Method: as §1

CYP2C19 = CYP2C19 (Homo sapiens, UniProt P33261); test: Inhibition of P450 isoenzymes; assay type: in vitro ADME
Source text: (§2) Inhibition of P450 isoenzymes.

[3] = system: CYP1A, CYP2B6, CYP2C8, CYP2C9, CYP2D6 and CYP3A4; test: Inhibition of P450 isoenzymes; assay type: in vitro ADME; settings: human, read-out: % inhibition of CYP450 isoenzymes other than CYP2C19
Source text: as §2

S. aureus ATCC 29213 [4] = assay type: cell-based, Staphylococcus aureus

Chain of CYP2C19 (P33261 whole entry): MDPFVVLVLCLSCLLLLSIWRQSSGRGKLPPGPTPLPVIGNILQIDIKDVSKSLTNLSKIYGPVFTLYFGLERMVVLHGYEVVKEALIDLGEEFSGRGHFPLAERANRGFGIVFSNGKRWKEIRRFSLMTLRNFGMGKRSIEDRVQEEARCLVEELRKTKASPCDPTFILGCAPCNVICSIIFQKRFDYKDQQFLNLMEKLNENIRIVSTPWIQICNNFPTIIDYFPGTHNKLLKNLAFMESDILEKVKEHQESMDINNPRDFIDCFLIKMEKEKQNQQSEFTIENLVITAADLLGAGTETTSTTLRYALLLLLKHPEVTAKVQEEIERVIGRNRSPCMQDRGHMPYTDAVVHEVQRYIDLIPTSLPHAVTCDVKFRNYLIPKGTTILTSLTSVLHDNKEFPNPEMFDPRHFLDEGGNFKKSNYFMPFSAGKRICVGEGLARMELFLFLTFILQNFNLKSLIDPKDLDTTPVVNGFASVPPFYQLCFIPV

Compound	Change of MIC in the presence of 20% human serum [1]	PAE compared with ciprofloxacin (E. coli ATCC 25922)	PAE (S. aureus ATCC 29213 [2]) [min]	inhibition at 10 µM (CYP2C19) [%]	inhibition at 10 µM [3] [%]	In vitro frequency of resistant mutants (S. aureus ATCC 29213 [4]; S. aureus ATCC 29213, 2×MIC)	In vitro frequency of resistant mutants (S. aureus ATCC 29213 [4]; S. aureus ATCC 29213, 4×MIC)
Cl.N#Cc1ccc2ccc(=O)n([C@H]3CC[C@H](NCc4cc5c(=O)oc6ccc(F)cc6c5[nH]4)CC3)c2c1 [Compound 2, 1-(trans-4-{[(8-fluoro-4-oxo-1,4-dihydro[1]benzopyrano[4,3-b]pyrrol-2-yl)methyl]amino}cyclohexyl)-2-oxo-1,2-dihydroquinoline-7-carbonitrile hydrochloride]	not modified	approximately two-fold greater	73 to 78	69	≤ 35	6.7×10^−7	–
O=C1COc2ncc(F)cc2N1[C@H]1CC[C@H](NCc2cc3c(=O)oc4ccc(F)cc4c3[nH]2)CC1 [Compound 1, 8-fluoro-2-({[trans-4-(7-fluoro-2-oxo-2,3-dihydro-1H-pyrido[2,3-b][1,4]oxazin-1-yl)cyclohexyl]amino}methyl)[1]benzopyrano[4,3-b]pyrrol-4(1H)-one]	two-fold increase	consistently higher	54 to 58	52	≤ 35	TNTC	1.4×10^−7

Source: publication PMC7029851, “Antibacterial activity of novel dual bacterial DNA type II topoisomerase inhibitors” (PLoS ONE, 2020)
